Columns and labels:
[1] = tested on: rabbit corneal endothelial cells; experiment: Production of cultured corneal endothelial cell sheet for transplantation, ZO-1 and Na+/K+ ATPase immunostaining (Example 7); type: cell-based; conditions: for coverage of the sheet with cells / expression of Na+/K+ ATPase / expression of ZO-1: 48 hours after seeding
Description: In this Example, rabbit corneal endothelial cells prepared in the same manner as in Example 4 were used.
In this Example, moreover, test substances and control substance prepared in the same manner as in Example 4 were used.
The rabbit corneal endothelial cells were seeded on Vitrigel™ (Asahi Glass) at a division ratio of 1:1, and a cultured corneal endothelial cell sheet for transplantation was produced. When producing the corneal endothelial cell sheet, 0.95 μM compound (I), 10 μM Y-27632 or 0.04% DMSO was added. The obtained corneal endothelial cell sheet was subjected to fluorescence immunostaining with ZO-1 and Na^+/K^+ ATPase, which are functional proteins of corneal endothelial cells, and expression was confirmed.
The corneal endothelial cell sheet was fixed with 95% ethanol (−30° C.) for 10 min, washed with PBS, and treated with 0.5% Triton X-100/PBS for 5 min. Then, it was treated with 1% BSA/PBS for 1 hour, and treated overnight with anti-ZO-1 antibody (Invitrogen, Cat. #339100) or anti-Na^+/K^+ ATPase antibody (Millipore, Cat. #C464.6). After washing with PBS, it was treated with Alexa-488 labeling secondary antibody for 1 hour. After washing with PBS, mounting medium (Vectashield (registered trade mark)) containing DAPI was added dropwise to the sheet, and the sheet was sealed with cover glass. The image was taken with a fluorescence microscope to confirm expression of ZO-1 and Na^+/K^+ ATPase. The immunostaining was performed both 48 hours and 14 days after the seeding (FIG. 10 and FIG. 11).

[2] = tested on: rabbit bullous keratopathy model; experiment: Corneal endothelial cell injection therapy in rabbit bullous keratopathy model (Example 8); type: in vivo; conditions: 14 days after cell injection; for expression of Na+/K+ ATPase: compared to control
From the text: Male Japanese white rabbits (Biotek Co., Ltd., 8 rabbits) were subjected to the following nictitating membrane excision. Each animal was set in a positioner, and the ocular surface was topically anesthetized by instillation of a topical anesthesia (Benoxil instillation 0.4%, Santen Pharmaceutical Co., Ltd.). Then, the root position of the nictitating membrane was pressed with a clamp for 30 sec, and compressing mark was cut with scissors. After excision of the nictitating membrane, the antibiotic ointment (tarivid eye ointment, Santen Pharmaceutical Co., Ltd.) was instilled to prevent infection.
Three days after nictitating membrane excision, phacoemulsification and aspiration surgery (PEA) was performed on the left eye. Under systemic anesthesia, 3 mm incision was formed in the corneoscleral limbus, crystalline lens was excised by a cataract surgery instrument (NIDEK Co., Ltd.), and the incision was sutured with a nylon thread (Mani Inc.). After phacoemulsification and aspiration surgery (PEA), the antibiotic ointment (tarivid eye ointment, Santen Pharmaceutical Co., Ltd.) was instilled to prevent infection. After 5 days from the PEA, the animals were systemically anesthetized by intramuscular administration of Ketalar muscular injection ([…], DAIICHI SANKYO COMPANY, LIMITED., 0.6 ml) and Celactal 2% Injection (Bayer, Ltd., 0.25 ml). Then, Benoxil instillation 0.4% (Santen Pharmaceutical Co., Ltd., one drop) was instilled and the eye was opened using a lid speculum. Thereafter, 1 mm incision was formed in the corneoscleral limbus, and corneal endothelial cells were scraped with a silicon surgical instrument to mechanically detach the cells. The detachment area was confirmed by trypan blue staining.
The corneal endothelial cells were mechanically scraped, the cultured corneal endothelial cells were collected with 0.05% trypsin-EDTA (Invitrogen, Cat. #25300-054) from the culture flask to give a cell suspension. Using Dulbecco's modified Eagle's medium (DMEM) (Invitrogen, 12320-032), the cultured rabbit corneal endothelial cells were suspended in 3 groups of 10 μM compound (I)/DMEM, 100 μM Y-27632/DMEM and DMEM, each at 1.0×10^6 cells/ml. The cell suspension of each group (200 μl (2.0×10^5 cells per one eye)) was injected with a 22 gauge needle to the anterior chamber from the corneoscleral limbus of the prepared rabbit bullous keratopathy model, and the rabbit was fixed looking downward such that the corneal endothelium face was on the upper side and the corneal epithelial face was on the lower side for 3 hours. The fixing with looking downward was performed with appropriate addition of anesthetics, paying sufficient attention to animal protection.
After 14 days from the cell injection, the treated eye was isolated, and a corneoscleral tissue was excised from the isolated eyeball. The obtained corneoscleral tissue was fixed with 4% para-formaldehyde/PBS for 10 min, and blocked overnight with PBS (Invitrogen, Cat. #14190-144) containing 1% BSA (SIGMA, Cat. #A7906-50G). Thereafter, the corneoscleral tissue was divided into two, and treated with Alexa-488 labeling phalloidin staining actin (Invitrogen, Cat. #Al2379), or anti-Na^+/K^+ ATPase antibody, which is a corneal endothelium marker (UP State, Cat. #05-369), for 2 hours. The anti-Na^+/K^+ ATPase antibody treatment group was further treated with Alexa-488 labeled secondary antibody (Invitrogen, Cat. #A-21202) for 1 hour. Thereafter, the cells were immersed in Vectashield (registered trade mark)-DAPI (Vector Laboratories, Cat. #H-1200) solution, and mounted using cover glass. The specimen was observed under a confocal laser microscope.
Taking the number of nuclei stained with DAPI as the corneal endothelial cell count, the DAPI stained images were analyzed by Image-Pro plus (Media Cybernetics, Inc.), and corneal endothelial cells were counted.

corneoscleral tissues = experiment: Cell death suppression in cornea preserved in corneal storage solution (Example 10); type: cell-based, rabbit; conditions: 4° C.
Description: In this Example, test substances and control substances prepared in the same manner as in Example 4 were used. Both right and left eyeballs of 5 male Japanese white rabbits (Biotek Co., Ltd.) were removed, and corneoscleral tissues were prepared. One corneoscleral tissue was placed in a storage solution Optisol-GS (registered trade mark) (Bausch & Lomb, Inc) (control), and the other corneoscleral tissue was placed in Optisol-GS containing 0.95 μM compound (I). Similarly, corneoscleral tissues were prepared from another 5 male Japanese white rabbits, one corneoscleral tissue was placed in Optisol-GS (control), and the other corneoscleral tissue was placed in Optisol-GS containing 10 μM Y-27632. The samples containing each corneoscleral tissue were preserved at 4° C. Two or three weeks later, the corneoscleral tissues were stained with Hoechst (Hoechst 33342, Sigma, Cat. #B2261), PI (propidium iodide, Sigma, Cat. #P4170) and Annexin V (Annexin V-FITC, MBL, Cat. #4700-100), and the cells therein were indentified as living cells, dead cells and apoptotic cells. In addition, the various cells in the stained cornea were counted using ImageJ (ver.1.44i, NIH, http://imagej.nih.gov/ij), and the mean value and the standard deviation of 5 visual fields were determined. The various cell counts were statistically analyzed by the student's t-test.

[3] = tested on: corneal endothelial loss model; experiment: Rabbit corneal endothelial loss model, high concentration instillation (Example 2); type: in vivo; conditions: 0.05 w/v % (1.58 mM) instillation, 6 times a day, 2 days

SMILES	coverage of the sheet with cells ([1]; 10 μM)	expression of Na+/K+ ATPase ([1]; 10 μM)	expression of ZO-1 ([1]; 10 μM)	fibrosis of injected cells (Phalloidin staining) ([2]; 100 μM in cell suspension)	corneal endothelial cell count versus control group ([2]; 100 μM)	expression of Na+/K+ ATPase ([2]; 100 μM)	number of dead cells versus control (corneoscleral tissues; 10 μM in Optisol-GS)	coverage of the sheet with cells ([1]; 0.95 μM)	expression of Na+/K+ ATPase ([1]; 0.95 μM)	expression of ZO-1 ([1]; 0.95 μM)	time in which a cultured corneal endothelial cell sheet for transplantation can be produced ([1]; from the addition to culture medium) [h]	fibrosis of injected cells (Phalloidin staining) ([2]; 10 μM in cell suspension)	corneal endothelial cell count versus 100 μM Y-27632 group ([2]; 10 μM)	corneal endothelial cell count versus control group ([2]; 10 μM)	expression of Na+/K+ ATPase ([2]; 10 μM)	effect in rabbit corneal endothelial loss model [3]	number of dead cells versus control (corneoscleral tissues; 0.95 μM in Optisol-GS, 2 weeks)	number of apoptotic cells versus control (corneoscleral tissues; 0.95 μM in Optisol-GS, 3 weeks)	number of dead cells versus control (corneoscleral tissues; 0.95 μM in Optisol-GS, 3 weeks)
C[C@@H](N)[C@H]1CC[C@H](C(=O)Nc2ccncc2)CC1 [Y-27632, reference compound]	partially uncovered with cells	found between cells in all	found between cells uniformly	suppression of fibrosis of cells	tended to show higher cell counts than the control group	expression of Na^+/K^+ ATPase was found	only the number of dead cells decreased significantly												
C[C@@H](N)c1ccc(C(=O)Nc2ccnc3[nH]ccc23)cc1.Cl [compound (I), (R)-(+)-N-(1H-pyrrolo[2,3-b]pyridin-4-yl)-4-(1-aminoethyl)benzamide monohydrochloride]								cells were adhered to the whole surface of the sheet	found between cells in all	found between cells uniformly	48	suppression of fibrosis of cells	higher than that of the 100 μM Y-27632 treatment group	tended to show higher cell counts than the control group	expression of Na^+/K^+ ATPase was found	effect can be confirmed	decreased significantly	decreased significantly	decreased significantly

— patent US20120288482A1, “THERAPEUTIC AGENT (Y-39983) FOR CORNEAL ENDOTHELIAL DYSFUNCTION” (priority 2009, published 2012)
